Values of other authors in patent publication EP0243248A1, “Compositions for the treatment of baldness and alopecia” (LABORATOIRES PHARMACEUTIQUES ROCHE-POSAY, priority 1986, dated 1987).

Details: for solubilité dans l'alcool: alcohol, in words; for solubilité dans les solutions alcalines / en milieu alcalin: alkaline solutions / alkaline medium; for solubilité dans l'eau: water

| SMILES | solubilité dans l'alcool | solubilité dans les solutions alcalines / en milieu alcalin | solubilité dans l'eau | solubilité dans le chloroforme (chloroform) | solubilité dans l'ether (ether) |
| --- | --- | --- | --- | --- | --- |
| CC1=NS(=O)(=O)c2cc(Cl)ccc2N1 [diazoxyde, chloro-7 méthyl-3 benzothiadiazine 1, 2,4 dioxyde-1,1] | solubles | solubles | insolubles | – | – |
| O=C1NC(=O)C(c2ccccc2)(c2ccccc2)N1 [Phenytoïne, diphényl-5,5 imidazolidinedione-2,4] | – | – | pratiquement insoluble | – | – |
| O=C1NC(=O)C(c2ccccc2)(c2ccccc2)N1 [diphénylhydantoï-nate de sodium] | un peu soluble | soluble | un peu soluble | insoluble | insoluble |
